Results on one molecule are retold here after patent publication US9012414B2, “Cosmetic composition” (Guerlain, priority 2010, dated 2015).

The nature of the data set: Solubility of the isolated vandaterosides. In kind it is physicochemical.

The structures appear in SMILES notation.

For `O=C(/C=C/c1ccccc1)O[C@H]1[C@H](OC(CC(=O)OCc2ccc(O[C@@H]3O[C@H](CO)[C@@H](O)[C@H](O)[C@H]3O)cc2)(Cc2ccc(O)cc2)C(=O)OCc2ccc(O[C@@H]3O[C@H](CO)[C@@H](O)[C@H](O)[C@H]3O)cc2)O[C@H](CO)[C@@H](O)[C@@H]1O` (stereo partly drawn) [VT3, 14-bis(4-β-D-glucopyranosyloxybenzyl)-(2R)-2-(2-β-D-glucopyranosyl-3-trans-cinnamoyl ester)-2-(p-hydroxybenzyl)malate], the “Solubility in MeOH and DMSO” value (MeOH, DMSO) is “soluble”. Moreover, the Solubility in water entry (water) is on record as “low solubility”.
